Results reported in ChEMBL document CHEMBL5030563, “Structure-Based Design of Dual-Acting Compounds Targeting Adenosine A2A Receptor and Histone Deacetylase as Novel Tumor Immunotherapeutic Agents” (J Med Chem, 2021).

What was measured:
[1] = molecular target: T1, Polyamine deacetylase HDAC10 (Homo sapiens, UniProt Q969S8); assay: Inhibition of HDAC10 (unknown origin) assessed as release of 7-amino-4-methylcoumarin incubated in room temperature for 15 min measured by Spectra max microtitre plate reader
T1 sequence (Q969S8 whole entry): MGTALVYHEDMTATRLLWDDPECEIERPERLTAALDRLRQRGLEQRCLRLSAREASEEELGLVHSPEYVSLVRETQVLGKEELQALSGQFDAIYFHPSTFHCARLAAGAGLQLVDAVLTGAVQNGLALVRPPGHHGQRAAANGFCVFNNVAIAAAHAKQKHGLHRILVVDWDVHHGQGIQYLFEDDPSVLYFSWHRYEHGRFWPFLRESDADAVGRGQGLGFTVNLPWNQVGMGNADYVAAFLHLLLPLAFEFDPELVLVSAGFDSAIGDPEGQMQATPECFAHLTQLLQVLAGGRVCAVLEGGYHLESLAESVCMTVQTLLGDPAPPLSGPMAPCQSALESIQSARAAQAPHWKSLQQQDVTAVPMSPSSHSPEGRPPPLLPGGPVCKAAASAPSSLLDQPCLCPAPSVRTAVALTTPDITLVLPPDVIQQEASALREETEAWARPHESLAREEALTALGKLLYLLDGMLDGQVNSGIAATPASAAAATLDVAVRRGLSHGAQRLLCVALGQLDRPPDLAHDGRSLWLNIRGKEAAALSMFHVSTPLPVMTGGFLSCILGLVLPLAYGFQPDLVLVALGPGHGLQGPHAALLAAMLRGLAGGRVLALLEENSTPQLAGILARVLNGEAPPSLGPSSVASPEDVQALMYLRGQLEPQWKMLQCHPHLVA

[2] = Cmax in ICR mouse at 20 mg/kg, ip up to 24 hrs by LC-MS/MS analysis; format: ADME, organism-based; design: route intraperitoneal, dose 20 mg/kg, time <=24; conditions: in vivo
[3] = AUC (0 to infinity) in ICR mouse at 20 mg/kg, po by LC-MS/MS analysis; format: ADME, organism-based; design: time infinity, route oral, dose 20 mg/kg; conditions: in vivo
[4] = Cmax in ICR mouse at 20 mg/kg, po by LC-MS/MS analysis; format: ADME, organism-based; design: route oral, dose 20 mg/kg; conditions: in vivo
CT26 = assay: Antiproliferative activity against mouse CT26 cells measured after 72 hrs by CCK8 assay; format: functional; conditions: Mus musculus, CT26
[5] = Tmax in ICR mouse at 20 mg/kg, ip up to 24 hrs by LC-MS/MS analysis; format: ADME, organism-based; conditions: in vivo
[6] = AUC (0 to t) in ICR mouse at 20 mg/kg, po by LC-MS/MS analysis; format: ADME, organism-based; design: dose 20 mg/kg; conditions: in vivo
[7] = Clearance in ICR mouse at 5 mg/kg, iv up to 24 hrs by LC-MS/MS analysis; format: ADME, organism-based; conditions: in vivo
[8] = Half life in ICR mouse at 20 mg/kg, ip up to 24 hrs by LC-MS/MS analysis; format: ADME, organism-based; conditions: in vivo
MC38 = assay: Inhibition of HDAC in mouse MC38 cells assessed as increase in acetyl-histone H4 measured after 24 hrs by Western blot analysis; format: cell-based
Histone deacetylase 11 = molecular target: T2, Histone deacetylase 11 (Homo sapiens, UniProt Q96DB2); assay: Inhibition of HDAC11 (unknown origin) assessed as release of 7-amino-4-methylcoumarin incubated in room temperature for 15 min measured by Spectra max microtitre plate reader
T2 sequence (Q96DB2 whole entry): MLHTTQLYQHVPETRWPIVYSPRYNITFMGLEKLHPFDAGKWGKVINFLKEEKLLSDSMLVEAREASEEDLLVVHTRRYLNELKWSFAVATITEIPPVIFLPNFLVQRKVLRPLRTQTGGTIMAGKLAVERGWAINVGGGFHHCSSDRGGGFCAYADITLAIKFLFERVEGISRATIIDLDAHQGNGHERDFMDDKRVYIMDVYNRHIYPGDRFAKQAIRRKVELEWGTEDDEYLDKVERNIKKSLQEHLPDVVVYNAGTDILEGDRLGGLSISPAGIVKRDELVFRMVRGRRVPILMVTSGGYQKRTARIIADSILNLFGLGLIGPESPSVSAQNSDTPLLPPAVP

[9] = MRT in ICR mouse at 5 mg/kg, iv up to 24 hrs by LC-MS/MS analysis; format: ADME, organism-based; conditions: in vivo
[10] = MRT in ICR mouse at 20 mg/kg, ip up to 24 hrs by LC-MS/MS analysis; format: ADME, organism-based; conditions: in vivo
Adenosine receptor A2a = Adenosine receptor A2a (Homo sapiens, UniProt P29274); assay: Displacement of [3H]SCH58261 from adenosine A2A receptor membrane (unknown origin) measured after 60 mins by scintillation counting analysis; format: cell membranes
Histone deacetylase 9 = Histone deacetylase 9 (Homo sapiens, UniProt Q9UKV0); assay: Inhibition of HDAC9 (unknown origin) assessed as release of 7-amino-4-methylcoumarin incubated in room temperature for 15 min measured by Spectra max microtitre plate reader
MC-38 = assay: Antitumour activity against mouse MC38 cells in C57BL/6 mouse assessed as tumour growth inhibition at 50 mg/kg, ip, bid measured after 9 days relative to control; format: functional; conditions: MC-38, ip, 216 h, time 9 day, read-out: TGI
[11] = Tmax in ICR mouse at 20 mg/kg, po by LC-MS/MS analysis; format: ADME, organism-based; conditions: in vivo
[12] = Volume of distribution in ICR mouse at 5 mg/kg, iv up to 24 hrs by LC-MS/MS analysis; format: ADME, organism-based; conditions: in vivo
[13] = AUC (0 to infinity) in ICR mouse at 5 mg/kg, iv up to 24 hrs by LC-MS/MS analysis; format: ADME, organism-based; design: route intravenous, dose 5 mg/kg, time <=24; conditions: in vivo
[14] = MRT in ICR mouse at 20 mg/kg, po by LC-MS/MS analysis; format: ADME, organism-based; conditions: in vivo
Histone deacetylase 3 = Histone deacetylase 3 (Homo sapiens, UniProt O15379); assay: Inhibition of HDAC3 (unknown origin) assessed as release of 7-amino-4-methylcoumarin incubated in room temperature for 15 min measured by Spectra max microtitre plate reader
[15] = Bioavailability in ICR mouse at 20 mg/kg up to 24 hrs by LC-MS/MS analysis; format: ADME, organism-based; conditions: in vivo
[16] = Oral bioavailability in ICR mouse at 20 mg/kg by LC-MS/MS analysis; format: ADME, organism-based; conditions: in vivo
[17] = Cmax in ICR mouse at 5 mg/kg, iv up to 24 hrs by LC-MS/MS analysis; format: ADME, organism-based; design: route intravenous, dose 5 mg/kg, time <=24; conditions: in vivo
Histone deacetylase 4 = Histone deacetylase 4 (Homo sapiens, UniProt P56524); assay: Inhibition of HDAC4 (unknown origin) assessed as release of 7-amino-4-methylcoumarin incubated in room temperature for 15 min measured by Spectra max microtitre plate reader
[18] = AUC (0 to infinity) in ICR mouse at 20 mg/kg, ip up to 24 hrs by LC-MS/MS analysis; format: ADME, organism-based; design: route intraperitoneal, dose 20 mg/kg, time <=24; conditions: in vivo

Sequence of Histone deacetylase 9 (Q9UKV0 whole entry): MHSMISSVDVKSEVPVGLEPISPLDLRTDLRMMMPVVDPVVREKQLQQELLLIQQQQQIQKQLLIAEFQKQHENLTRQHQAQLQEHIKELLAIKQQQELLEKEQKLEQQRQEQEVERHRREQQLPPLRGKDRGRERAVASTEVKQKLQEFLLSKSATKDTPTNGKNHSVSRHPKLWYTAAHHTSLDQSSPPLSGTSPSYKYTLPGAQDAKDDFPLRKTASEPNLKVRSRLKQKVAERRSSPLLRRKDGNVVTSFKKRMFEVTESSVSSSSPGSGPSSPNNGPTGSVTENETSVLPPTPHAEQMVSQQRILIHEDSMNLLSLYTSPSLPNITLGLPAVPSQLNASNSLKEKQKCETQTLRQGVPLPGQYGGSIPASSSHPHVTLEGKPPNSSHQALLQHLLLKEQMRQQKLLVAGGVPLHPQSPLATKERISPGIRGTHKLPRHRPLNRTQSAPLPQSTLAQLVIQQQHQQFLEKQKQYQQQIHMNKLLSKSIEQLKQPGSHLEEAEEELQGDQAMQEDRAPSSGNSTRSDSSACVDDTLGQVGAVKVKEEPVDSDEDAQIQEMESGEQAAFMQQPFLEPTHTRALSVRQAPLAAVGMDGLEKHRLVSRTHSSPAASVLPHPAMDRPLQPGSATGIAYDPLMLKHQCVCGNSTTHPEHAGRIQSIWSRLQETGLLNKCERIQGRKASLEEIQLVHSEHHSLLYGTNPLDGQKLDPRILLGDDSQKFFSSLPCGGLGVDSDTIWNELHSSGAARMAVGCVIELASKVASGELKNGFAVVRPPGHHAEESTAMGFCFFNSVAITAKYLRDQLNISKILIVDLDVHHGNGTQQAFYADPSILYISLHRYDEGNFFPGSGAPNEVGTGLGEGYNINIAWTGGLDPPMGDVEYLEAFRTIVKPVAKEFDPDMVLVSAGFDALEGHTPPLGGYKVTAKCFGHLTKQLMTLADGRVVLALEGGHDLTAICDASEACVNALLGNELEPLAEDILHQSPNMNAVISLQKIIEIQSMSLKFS
Sequence of Histone deacetylase 3 (O15379 whole entry): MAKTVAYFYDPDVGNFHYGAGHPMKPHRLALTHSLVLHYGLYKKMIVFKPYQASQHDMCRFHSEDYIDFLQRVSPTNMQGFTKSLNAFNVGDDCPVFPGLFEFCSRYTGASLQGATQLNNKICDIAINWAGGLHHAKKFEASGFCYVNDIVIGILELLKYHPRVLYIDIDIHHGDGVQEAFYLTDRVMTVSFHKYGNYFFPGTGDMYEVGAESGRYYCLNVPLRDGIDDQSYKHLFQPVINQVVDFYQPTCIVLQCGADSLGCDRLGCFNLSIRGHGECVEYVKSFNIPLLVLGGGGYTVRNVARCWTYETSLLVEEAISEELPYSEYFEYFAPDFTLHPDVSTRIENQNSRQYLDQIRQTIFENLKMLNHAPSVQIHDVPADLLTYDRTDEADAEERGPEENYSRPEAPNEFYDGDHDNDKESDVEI
Sequence of Adenosine receptor A2a (P29274 whole entry): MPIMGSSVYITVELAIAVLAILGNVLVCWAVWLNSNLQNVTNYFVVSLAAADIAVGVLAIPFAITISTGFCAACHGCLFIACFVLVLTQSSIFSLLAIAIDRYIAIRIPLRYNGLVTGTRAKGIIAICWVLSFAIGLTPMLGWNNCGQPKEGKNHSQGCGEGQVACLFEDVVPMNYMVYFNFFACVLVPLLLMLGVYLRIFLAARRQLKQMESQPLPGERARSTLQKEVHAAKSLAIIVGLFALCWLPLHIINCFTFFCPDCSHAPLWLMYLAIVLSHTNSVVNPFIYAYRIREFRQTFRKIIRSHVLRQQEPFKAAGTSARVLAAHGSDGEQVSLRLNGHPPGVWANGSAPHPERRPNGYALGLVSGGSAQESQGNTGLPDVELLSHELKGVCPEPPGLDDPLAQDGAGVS
Sequence of Histone deacetylase 4 (P56524 whole entry): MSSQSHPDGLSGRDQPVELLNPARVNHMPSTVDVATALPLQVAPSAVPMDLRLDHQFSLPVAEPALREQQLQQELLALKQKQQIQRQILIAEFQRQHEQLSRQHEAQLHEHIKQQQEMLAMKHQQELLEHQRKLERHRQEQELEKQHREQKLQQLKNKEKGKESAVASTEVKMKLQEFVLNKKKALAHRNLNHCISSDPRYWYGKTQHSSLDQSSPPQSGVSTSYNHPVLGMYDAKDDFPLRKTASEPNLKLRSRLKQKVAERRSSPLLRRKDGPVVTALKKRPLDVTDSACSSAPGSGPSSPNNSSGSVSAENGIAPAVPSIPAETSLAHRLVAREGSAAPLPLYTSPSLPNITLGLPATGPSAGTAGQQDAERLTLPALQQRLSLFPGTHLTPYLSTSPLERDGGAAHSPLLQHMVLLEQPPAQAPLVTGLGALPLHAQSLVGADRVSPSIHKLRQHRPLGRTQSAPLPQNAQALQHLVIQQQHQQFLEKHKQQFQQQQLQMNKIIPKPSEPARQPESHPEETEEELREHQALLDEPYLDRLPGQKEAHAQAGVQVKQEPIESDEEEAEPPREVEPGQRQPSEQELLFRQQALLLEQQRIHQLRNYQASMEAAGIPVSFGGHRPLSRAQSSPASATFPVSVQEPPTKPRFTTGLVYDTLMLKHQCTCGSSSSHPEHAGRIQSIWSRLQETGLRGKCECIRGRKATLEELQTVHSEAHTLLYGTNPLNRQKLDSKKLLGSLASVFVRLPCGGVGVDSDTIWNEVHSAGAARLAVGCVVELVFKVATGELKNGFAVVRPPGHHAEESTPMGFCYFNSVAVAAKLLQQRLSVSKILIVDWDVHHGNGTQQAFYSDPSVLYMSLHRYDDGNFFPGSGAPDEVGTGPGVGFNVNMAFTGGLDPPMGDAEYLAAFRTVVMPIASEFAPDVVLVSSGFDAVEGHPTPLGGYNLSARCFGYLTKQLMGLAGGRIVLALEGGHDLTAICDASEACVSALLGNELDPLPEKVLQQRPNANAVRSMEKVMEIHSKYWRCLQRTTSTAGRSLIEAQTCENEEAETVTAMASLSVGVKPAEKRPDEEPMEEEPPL

- IC50 [1]: 632 nM
- Cmax [2]: 2160 ng/mL
- AUC(0-inf) [3]: 1810 ng·h/mL
- Cmax [4]: 1590 ng/mL
- GI50 (CT26): 6100 nM
- Tmax [5]: 25 min
- AUC(0-t) [6]: 1770 ng·h/mL
- clearance [7]: 59 mL/min/kg
- half-life [8]: 113 min
- IC50 (Histone deacetylase 11): > 10000 nM
- MRT [9]: 20 min
- MRT [10]: 157 min
- Ki (Adenosine receptor A2a): 2.2 nM
- IC50 (Histone deacetylase 9): > 10000 nM
- Tmax [11]: 15 min
- Vd [12]: 1.19 L/kg
- AUC(0-inf) [13]: 1470 ng·h/mL
- MRT [14]: 84.6 min
- IC50 (Histone deacetylase 3): 449 nM
- bioavailability [15]: 112%
- bioavailability [16]: 30.3%
- Cmax [17]: 3320 ng/mL
- IC50 (Histone deacetylase 4): > 10000 nM
- AUC(0-inf) [18]: 6630 ng·h/mL
SMILES: Nc1ccccc1NC(=O)c1ccc(CCn2ncc3c2nc(N)n2nc(-c4ccco4)nc32)cc1
- Activity (MC38): Dose-Dependent Effect
- inhibition in vivo at 50 mg/kg (MC-38): 81%
